In the test the test system is Citrobacter rodentium. The test is described as follows: Functionality assay (antimicrobial activity, killing of bacteria). It is filed as cell-based. As for the experimental part:
One skilled in the art will appreciate that similar methods can be used to confirm the functionality of any AMP of interest, such as a defensin. The OD600 of a Citrobacter rodentium overnight culture was measured and a dilution series was performed. 100 μl of a 7.1×10^2 bacteria/ml dilution was used in the functionality assay. […] For LL37, the positive control had 20 μM pure synthetic LL37 (Microchem Facility, Emory) added, and LL37 peptide obtained in Example 2 was added at 8.5 μg (250 μl) or 17 μg (500 μl) (FIG. 3). 20 μM concentration of the synthetic peptides equals 8.8 μg added.

Where [1] appears, read: CRAMP peptide of Example 2 at 30 μM or 53 μM, positive control 50 μM CRAMP (Sigma Genosys), FIG. 2.

In the case of “CRAMP-FLAG-tag: CRAMP with C-terminal FLAG tag, released by sumoase from His tag-SUMO-CRAMP-FLAG-tag (HMGLLRKGGEKIGEKLKKIGQKIKNFFQKLVPQPEQDYKDDDDKG; C-terminal FLAG tag; Resulting peptide when SEQ ID NO 45 treated with sumoase)”, the “efficiency in killing Citrobacter rodentium compared with commercially available peptide” value under setting [1] is “decrease in efficacy”. For “CRAMP: mouse cathelicidin-related antimicrobial peptide, active last 34 aa, released by sumoase from recombinant His tag-SUMO-CRAMP (HMGLLRKGGEKIGEKLKKIGQKIKNFFQKLVPQPEQ; resulting protein when SEQ ID NO 47 treated with sumoase)”, the “efficiency in killing Citrobacter rodentium compared with commercially available peptide” value under setting [1] is given as “almost as efficient in killing Citrobacter rodentium as the commercially available peptide”. “LL37: human cathelicidin LL37 plus N-terminal His and Met, released by sumoase from His tag-SUMO-LL37 (HMLLGDFFRKSKEKIGKEFKRIVQRIKDFLRNLVPRTES; resulting peptide when SEQ ID NO 40 treated with sumoase.)”: the “efficiency in killing Citrobacter rodentium compared with commercially available peptide” value (LL37 peptide of Example 2 at 8.5 μg (250 μl) or 17 μg (500 μl), positive control 20 μM synthetic LL37, FIG. 3) was “almost as efficient in killing Citrobacter rodentium as the commercially available peptide”.
